The results in this text go back to patent US6767909B2, “Compounds useful for treatment or prevention of disease mediated by alpha-2B-adrenoceptor” (Oy Juvantia Pharma Ltd., priority 2001, dated 2004).

The target in test [1] is T1, human alpha-2A-adrenoceptor (Homo sapiens, UniProt P08913).
T1 construct: expressed in transfected cells
T1 sequence (P08913 1-465): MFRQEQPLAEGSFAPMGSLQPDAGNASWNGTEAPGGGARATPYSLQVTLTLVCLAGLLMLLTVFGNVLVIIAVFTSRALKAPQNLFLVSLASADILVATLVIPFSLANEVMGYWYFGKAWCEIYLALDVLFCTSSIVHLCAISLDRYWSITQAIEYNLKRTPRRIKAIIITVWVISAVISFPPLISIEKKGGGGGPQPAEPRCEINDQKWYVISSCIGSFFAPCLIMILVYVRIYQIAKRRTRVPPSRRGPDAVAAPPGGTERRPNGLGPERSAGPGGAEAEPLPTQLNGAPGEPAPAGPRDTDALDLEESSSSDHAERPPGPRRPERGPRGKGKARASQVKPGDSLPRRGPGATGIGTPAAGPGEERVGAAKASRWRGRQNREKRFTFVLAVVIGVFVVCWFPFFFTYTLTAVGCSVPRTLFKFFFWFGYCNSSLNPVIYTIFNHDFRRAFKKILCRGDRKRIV
Kind of test: Human alpha-2-adrenoceptor binding affinity, 3H-rauwolscine competition binding. The conditions noted are these: Mean ± SEM, membranes of Shionogi S115 cells transfected with human α2A. On the procedure: (§1) Results expressed in the form of “>” means that no numerical values for Ki's could be established due to lack of displacement or due to incomplete competition curves.
(§2) Human Alpha-2-adrenoceptor Binding Affinity
(§3) After 30 min at room temperature, incubations were terminated by rapid vacuum filtration through GF/B glass fiber filter and three 5 ml washes with ice-cold incubation buffer. The filters were then dried, impregnated with scintillate and their radioactivity was measured by scintillation counting. The analysis of the experiments was carried out by non-linear least square curve fitting. Experimentally determined IC50 values were converted to Ki's by making use of the Cheng-Prusoff equation (Cheng and Prusoff, 1973). Experiments were repeated a minimum of three times. to the incubation mixture. After an additional 60 min at room temperature, the incubation was terminated by rapid vacuum filtration through glass fibre filter. Filters were washed three times with 5 ml ice cold wash buffer (20 mM Tris, 5 mM MgCl2, 1 mM EDTA pH 7.4 at room temperature), dried and counted for radioactivity in a scintiallation counter. Analysis of experiments was carried out by non-linear least square fitting. Results are based on a minimum of three experiments.

Test [2] addresses T2, human alpha-2B-adrenoceptor (Homo sapiens, UniProt P18089).
T2 construct: expressed in transfected cells
T2 sequence (P18089 1-450): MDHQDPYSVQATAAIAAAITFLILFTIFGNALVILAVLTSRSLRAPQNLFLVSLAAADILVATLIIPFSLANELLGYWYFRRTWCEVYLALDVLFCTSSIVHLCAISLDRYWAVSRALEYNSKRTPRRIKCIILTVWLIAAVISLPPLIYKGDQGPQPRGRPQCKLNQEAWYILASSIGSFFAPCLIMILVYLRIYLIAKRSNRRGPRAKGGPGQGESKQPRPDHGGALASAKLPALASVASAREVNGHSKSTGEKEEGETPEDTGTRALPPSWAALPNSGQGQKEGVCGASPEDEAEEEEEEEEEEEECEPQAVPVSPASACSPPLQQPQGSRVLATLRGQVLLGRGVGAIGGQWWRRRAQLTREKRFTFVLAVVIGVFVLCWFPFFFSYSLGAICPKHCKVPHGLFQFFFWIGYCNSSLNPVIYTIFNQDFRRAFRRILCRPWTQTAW
Described as above. The following applies: Mean ± SEM, membranes of Shionogi S115 cells transfected with human α2B. On the procedure: as §1, §2
as §3, with “Experimentally determined IC50 values were converted to Ki's by making use of the Cheng-Prusoff equation (Cheng and Prusoff, 1973).” left out

Test [3] deals with T3, human alpha-2C-adrenoceptor (Homo sapiens, UniProt P18825).
T3 construct: expressed in transfected cells
T3 sequence (P18825 1-462): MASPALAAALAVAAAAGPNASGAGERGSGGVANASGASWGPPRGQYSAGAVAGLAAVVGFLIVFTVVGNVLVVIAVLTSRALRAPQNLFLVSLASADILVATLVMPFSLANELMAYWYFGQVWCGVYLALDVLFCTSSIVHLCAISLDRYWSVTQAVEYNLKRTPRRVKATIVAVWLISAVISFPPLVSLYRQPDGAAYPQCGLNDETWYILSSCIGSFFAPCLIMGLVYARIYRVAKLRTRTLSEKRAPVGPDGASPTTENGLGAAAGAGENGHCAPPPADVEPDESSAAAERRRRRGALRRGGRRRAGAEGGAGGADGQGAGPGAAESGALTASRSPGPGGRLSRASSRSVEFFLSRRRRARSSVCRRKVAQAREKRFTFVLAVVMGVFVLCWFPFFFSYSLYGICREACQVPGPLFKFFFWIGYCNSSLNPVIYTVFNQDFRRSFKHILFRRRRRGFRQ
The test is described as above. The following applies: Mean ± SEM, membranes of Shionogi S115 cells transfected with human α2C. The procedure:
as §1, §2
as §3, with “Experimentally determined IC50 values were converted to Ki's by making use of the Cheng-Prusoff equation (Cheng and Prusoff, 1973).” left out

The target of test [4] is T1, human alpha-2A-adrenoceptor. Description: Antagonist activity: inhibition of epinephrine-stimulated 35S-GTPγS binding. Type of test: biochemical. The following applies: Mean ± SEM; CHO cell membranes, human α2A; 5 μM epinephrine; read-out: KB alpha-2A antagonist effect. The procedure:
(§4) Antagonist Activity on Human Alpha-2-adrenoceptor Subtypes
Membranes (2-6 μg of protein per sample) and 12 concentrations of test compound were preincubated for 30 min with a fixed concentration fo epinephrine (5 μM for α2A, 15 μM for α2B, 5 μM for α2C) in 50 mM Tris, 5 mM MgCl2, 150 mM NaCl, 1 mM DTT, 1 mM EDTA, 10 μM GDP, 30 μM ascorbic acid, pH 7.4 at room temperature. Binding of radiolabel was started by the addition of trace amounts of ^35S-GTPγS (0.08-0.15 nM, specific activity 1250 Ci/mmol)
as §3

The target of test [5] is T2, human alpha-2B-adrenoceptor. The test is described as above. Type of test: biochemical. The following applies: Mean ± SEM; CHO cell membranes, human α2B; 15 μM epinephrine; read-out: KB alpha-2B antagonist effect. On the procedure: as §4
as §3, with “Experimentally determined IC50 values were converted to Ki's by making use of the Cheng-Prusoff equation (Cheng and Prusoff, 1973).” left out

In test [6] the target is T3, human alpha-2C-adrenoceptor. The test is described as above. The test is classed as biochemical. The conditions noted are these: Mean ± SEM; CHO cell membranes, human α2C; 5 μM epinephrine; read-out: KB alpha-2C antagonist effect. On the procedure: as §4
as §3, with “Experimentally determined IC50 values were converted to Ki's by making use of the Cheng-Prusoff equation (Cheng and Prusoff, 1973).” left out

For orientation: Ki means a measure of affinity in units of concentration, obtained from inhibition or displacement. Broadly, the Kb is the affinity of an antagonist, worked out from how it opposes an agonist. Turning to `CCn1cc(CNc2ccc(S(=O)(=O)Nc3nc(C)cc(C)n3)cc2)c2ccccc21` [Compound F, N-(4,6-Dimethylpyrimidin-2-yl)-4-[(1-ethyl-1H-indol-3-ylmethyl)-amino]-benzenesulfonamide], the Ki was greater than 4.3 µM in test [1], 0.043 ± 0.007 µM in test [2] and greater than 10 µM in test [3]. Further, the antagonist equilibrium constant (Kb) came to 8.7 ± 1.1 µM in test [4], 0.24 ± 0.06 µM in test [5] and 12 ± 2 µM in test [6].
As to `Cc1cc(C)nc(NS(=O)(=O)c2ccc(NCc3nc4ccccc4n3CC(C)C)cc2)n1` [Compound A, N-(4,6-Dimethylpyrimidin-2-yl)-4-[(1-isobutyl-1H-benzimidazol-2-ylmethyl)-amino]-benzenesulfonamide], the Ki in test [1] was greater than 13 µM; in test [2], 0.16 ± 0.02 µM; in test [3], greater than 30 µM.
As to `COc1cccc(CNc2ccc(S(=O)(=O)Nc3nc(C)cc(C)n3)cc2)c1` [Compound E, N-(4,6-Dimethylpyrimidin-2yl-)4(3-methoxybenzylamino)-benzenesulfonamide], the Ki is greater than 5.1 µM in test [1], 0.02 ± 0.004 µM in test [2] and greater than 10 µM in test [3]. In addition, the Kb in test [4] was 7.9 ± 3.1 µM; in test [5] it was 0.029 ± 0.005 µM; in test [6], 7.3 ± 1.1 µM.
As for `Cc1cc(C)nc(NS(=O)(=O)c2ccc(NCc3ccccc3C)cc2)n1` [Compound B, N-(4,6-Dimethylpyrimidin-2-yl)-4-(2-methylbenzylamino)-benzenesulfonamide], the Ki was greater than 4.5 µM in test [1], 0.034 ± 0.002 µM in test [2] and greater than 10 µM in test [3]. In addition, the Kb in test [4] is 14.5 ± 3.6 µM; in test [5], 0.075 ± 0.009 µM; in test [6], 5.7 ± 0.7 µM.
Regarding `Cc1cc(C)nc(NS(=O)(=O)c2ccc(NCc3c(Cl)cccc3Cl)cc2)n1` [Compound C, 4-(2,6Dichlorobenzylamino)-N-(4,6-dimethylpyrimidin-2-yl)-benzenesulfonamide], the Ki in test [1] is 2 ± 0.4 µM; in test [3] it was greater than 10 µM. The Kb in test [4] was determined as 5.4 ± 1.4 µM; in test [6], 6.3 ± 1.4 µM.
Turning to `COc1ccccc1CCNc1ccc(S(=O)(=O)Nc2nc(C)cc(C)n2)cc1` [Compound G, N-(4,6-Dimethylpyrimidin-2-yl)-4-[2-(2-methoxyphenyl)-ethylamino]-benzenesulfonamide], the results for the Ki in test [1], in test [2] and in test [3] were 2.2 ± 0.6 µM, 0.032 ± 0.005 µM and greater than 10 µM, respectively. The Kb was 3.2 ± 0.5 µM in test [4], 0.086 ± 0.064 µM in test [5] and 4.7 ± 1.8 µM in test [6].
For `Cc1cc(C)nc(NS(=O)(=O)c2ccc(NCc3ccc4ccccc4c3)cc2)n1` [Compound D, N-(4,6-Dimethylpyrimidin-2-yl)-4-[(naphthalen-2-ylmethyl)-amino]-benzenesulfonamide], the Ki in test [1] was greater than 10 µM; in test [2], 0.44 ± 0.07 µM; in test [3] it was greater than 10 µM.
Consider `Cc1cc(C)nc(NS(=O)(=O)c2ccc(NC(c3ccccc3)c3ccccc3)cc2)n1` [Compound H, 4-(Benzhydrylamino)-N-(4,6-dimethylpyrimidin-2-yl)-benzenesulfonamide], for which the figures for the inhibition constant Ki in test [1], in test [2] and in test [3] were greater than 30 µM, 8 ± 0.5 µM and greater than 30 µM, respectively.
